# Assay results as given in PubChem BioAssay (NCI).
#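 Step 1: Grow cells in 96-well plates. Step 2: Expose to compound for 48 hours at 5 concentrations. Step 3: Interpolate endpoints linearly; if unreached, use highest concentration. GI50 is the concentration that inhibits growth by half. The concentration for full growth arrest is given as TGI.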
# Legend:
# Assay in all cases: NCI-60 cell line screen, 48 h
# [1] = tested on: SW-620 colon
# [2] = tested on: DU-145 prostate
# [3] = tested on: HCT-116 colon
# [4] = tested on: BT-549 breast
# [5] = tested on: PC-3 prostate
# [6] = tested on: HOP-92 NSCLC
# [7] = tested on: SF-539 CNS
# [8] = tested on: MDA-MB-231 breast
# [9] = tested on: NCI/ADR-RES ovarian
# [10] = tested on: SK-MEL-5 melanoma
Structure (SMILES),TGI [1] [µM],TGI [2] [µM],TGI [3] [µM],TGI [4] [µM],TGI [5] [µM],TGI [6] [µM],TGI [7] [µM],TGI [8] [µM],TGI [9] [µM],TGI [10] [µM],GI50 [1] [µM],GI50 [2] [µM],GI50 [3] [µM],GI50 [4] [µM],GI50 [5] [µM],GI50 [6] [µM],GI50 [7] [µM],GI50 [10] [µM],GI50 [9] [µM]
CC(=O)O[C@H]1C(=O)[C@@]2(C)[C@H]([C@H](OC(=O)c3ccoc3)[C@]3(O)C[C@H](OC(=O)[C@H](O)[C@@H](NC(=O)c4ccccc4)c4ccccc4)C(C)=C1C3(C)C)[C@]1(OC(C)=O)CO[C@@H]1C[C@@H]2O,> 12.5,> 12.5,0.366,> 12.5,> 12.5,> 12.5,0.221,> 12.5,> 12.5,–,–,–,–,–,–,–,–,–,–
C=CCCC1(CC(Sc2ccccc2)P(=O)(c2ccccc2)c2ccccc2)OCCO1 (stereo not drawn),> 10,> 10,> 10,> 10,> 10,–,> 10,> 10,> 10,> 10,–,–,–,–,–,–,–,–,–
CC1(C)OC(=O)N(c2ccccc2)C12C=Cc1cc([N+](=O)[O-])ccc1O2 (stereo not drawn),> 100,> 100,> 100,> 100,> 100,86.9,–,80.4,> 100,> 100,–,–,–,–,–,–,–,–,–
COC(=O)CC1N=C(NC#N)N(CCc2c[nH]c3ccccc23)C1=O (stereo not drawn),> 100,–,> 100,–,–,–,> 100,–,–,> 100,–,–,–,–,–,–,–,–,–
C(/C=C/Nc1ccc(Oc2ccccc2)cc1)=Nc1ccc(Oc2ccccc2)cc1,34.6,39.5,31.2,29.3,28.4,51.2,32.9,31.1,33.5,–,–,–,–,–,–,–,–,–,–
CC(=O)OC1C(Oc2c(C)cc3c(c2O)[C@@H](C)CC[C@@H]3[C@@H](C)CCC=C(C)C)OCC(O)C1O (stereo partly drawn),33.8,29.8,32.2,–,39.6,–,34.7,38.7,40.6,32.1,–,–,–,–,–,–,–,–,–
CC1=CCC(O)C=CC(C)C(O)C(C)C=C(C)C(=O)c2c(O)c(C)cc3c2C(=O)C(N)=C(NC(=O)/C=C\C=C/C=CC(C)C(O)CC1=O)C3=O (stereo not drawn),> 100,–,54.4,–,–,> 100,> 100,–,–,> 100,–,–,–,–,–,–,–,–,–
CN(C)CC1CCCC(CN(C)C)C1OC(=O)c1ccccc1 (stereo not drawn),> 100,–,> 100,–,–,> 100,> 100,–,–,> 100,–,–,–,–,–,–,–,–,–
CCN(CC)C1CC(O[C@H]2C[C@](O)(C(=O)CO)Cc3c(O)c4c(c(O)c32)C(=O)c2c(OC)cccc2C4=O)OC(C)C1O (stereo partly drawn),0.328,–,1.03,–,–,0.268,0.204,–,–,0.124,–,–,–,–,–,–,–,–,–
CC(CC[C@@]1(C)C(=O)CCC2O[C@]21C)[C@H]1C[C@@H](c2ccoc2)OC1=O (stereo partly drawn),91.8,> 100,38.4,–,> 100,86.9,69.1,–,> 100,> 100,–,–,–,–,–,–,–,–,–
Cc1ccc2c(c1)CC1(Cc3ccccc3C1=O)C2=O (stereo not drawn),> 100,> 100,> 100,–,> 100,> 100,> 100,> 100,> 100,> 100,–,–,–,–,–,–,–,–,–
COc1cc(OC)c2c(C)cc(=O)oc2c1,> 100,> 100,> 100,–,> 100,–,> 100,> 100,> 100,> 100,–,–,–,–,–,–,–,–,–
O=C1c2ccccc2C(=O)N1CCCCNOCCCN1C(=O)c2ccccc2C1=O,> 100,> 100,> 100,> 100,> 100,> 100,–,> 100,> 100,> 100,–,–,–,–,–,–,–,–,–
CCOC(C)O[C@H]1C(=O)OCC1(C)C (stereo partly drawn),> 100,> 100,–,–,> 100,> 100,> 100,> 100,> 100,> 100,–,–,–,–,–,–,–,–,–
O=c1cc(-c2ccc(Oc3ccccc3)cc2)[nH]c2cc3c(cc12)OCO3,> 100,–,> 100,–,–,–,> 100,–,–,> 100,–,–,–,–,–,–,–,–,–
CCOC(=O)c1ccc(NCc2ccc3oc(=O)c(-c4ccccc4)nc3c2)cc1,50.4,> 100,80.3,–,> 100,83,> 100,> 100,> 100,45.2,–,–,–,–,–,–,–,–,–
C[C@@H](c1ccccc1)n1c(N)c(C#N)c2ccc([N+](=O)[O-])cc2c1=O,48.3,33,28.8,30,> 100,24,–,37,22.5,50.8,–,–,–,–,–,–,–,–,–
Nc1nc([O-])c2c(n1)[n+](C1OC(CO)C(O)C1O)cn2CCO (stereo not drawn),> 100,–,> 100,–,–,> 100,> 100,–,–,> 100,–,–,–,–,–,–,–,–,–
CSc1cc(Cl)c(C)cc1S(=O)(=O)NC(=O)NNc1cccc(C(F)(F)F)n1,> 100,> 100,> 100,–,> 100,–,> 100,> 100,> 100,> 100,–,–,–,–,–,–,–,–,–
O=[N+]([O-])c1ccc(S(=O)(=O)n2c3ccc(Br)cc3c3nc4ccccc4nc32)cc1,> 100,> 100,> 100,–,> 100,> 100,–,> 100,> 100,> 100,–,–,–,–,–,–,–,–,–
N#C[C@@H](c1ccccn1)c1ncccc1[N+](=O)[O-],> 100,> 100,> 100,> 100,> 100,–,–,> 100,> 100,> 100,–,–,–,–,–,–,–,–,–
CCOC(=O)CC(C)C1(C(=O)OCC)CCCCC1=O (stereo not drawn),–,–,> 100,–,–,–,> 100,–,–,> 100,–,–,–,–,–,–,–,–,–
NNC(=S)N/N=C(/C(=O)Nc1ccc(Cl)c(Cl)c1)C(C1OC(=O)c2ccccc21)[N+](=O)[O-] (stereo not drawn),> 100,–,> 100,> 100,> 100,> 100,> 100,> 100,> 100,> 100,–,–,–,–,–,–,–,–,–
COC1=C(OC)C(=O)C(Cc2c(C)nc3sccn23)=C(C)C1=O,34.8,38.6,64.2,31,51.6,–,31.2,32.9,31.1,17.6,–,–,–,–,–,–,–,–,–

Structure (SMILES),TGI [1] [µM],TGI [2] [µM],TGI [3] [µM],TGI [4] [µM],TGI [5] [µM],TGI [6] [µM],TGI [7] [µM],TGI [8] [µM],TGI [9] [µM],TGI [10] [µM],GI50 [1] [µM],GI50 [2] [µM],GI50 [3] [µM],GI50 [4] [µM],GI50 [5] [µM],GI50 [6] [µM],GI50 [7] [µM],GI50 [10] [µM],GI50 [9] [µM]
CN=C(SC)N(C)c1nc(=[N+](C)C)ss1,> 100,–,> 100,–,–,> 100,–,–,–,> 100,–,–,–,–,–,–,–,–,–
C=C(C)[C@H]1Cc2c(ccc3c2O[C@@H]2COc4cc(OC)c(OC)cc4[C@@H]2C3=O)O1,82.8,38.9,23.5,9.23,47.5,18.1,3.36,44.7,–,3.04,–,–,–,–,–,–,–,–,–
N#C/C(=C/NC(N)=S)C(N)=O,> 100,> 100,> 100,> 100,–,> 100,> 100,> 100,> 100,> 100,–,–,–,–,–,–,–,–,–
CC(C)OC(=O)/C=C/C(=O)O/C=C/[N+](=O)[O-],> 100,> 100,54.3,90.4,> 100,–,> 100,> 100,> 100,> 100,–,–,–,–,–,–,–,–,–
O=C1c2ccsc2C(=O)c2sc(CO)cc21,0.164,–,0.279,0.0352,1.78,0.994,0.1,0.48,0.396,0.0163,–,–,–,–,–,–,–,–,–
CCOc1ncn(-c2ccc(NC(=S)NC3OC(CO)C(O)C(O)C3O)cc2)n1 (stereo not drawn),> 100,> 100,> 100,> 100,> 100,> 100,> 100,> 100,–,> 100,–,–,–,–,–,–,–,–,–
O=C(c1cccs1)N1CCc2ccccc2C1,> 100,> 100,> 100,–,> 100,> 100,> 100,> 100,> 100,> 100,–,–,–,–,–,–,–,–,–
O=C(/C=C/c1ccc2ccccc2c1)NCc1ccc(C(=O)NCCc2ccccc2)cc1,> 100,> 100,> 100,–,> 100,> 100,–,> 100,> 100,> 100,–,–,–,–,–,–,–,–,–
c1ccc(CNc2nncc3[nH]cnc23)cc1,> 100,–,> 100,> 100,> 100,> 100,> 100,> 100,> 100,> 100,–,–,–,–,–,–,–,–,–
CCOC1=NC(O)c2cccn2-c2sccc21 (stereo not drawn),> 100,> 100,> 100,–,> 100,> 100,> 100,> 100,> 100,> 100,–,–,–,–,–,–,–,–,–
N#Cc1[nH]c(=O)n(-c2ccccc2)c1N,> 10,> 10,> 10,–,> 10,–,> 10,> 10,> 10,> 10,–,–,–,–,–,–,–,–,–
CCO/C=N\C1=C(C#N)SC2=N/C(=C\c3ccc(OC)cc3)C(=O)N21,> 100,> 100,> 100,–,–,> 100,> 100,> 100,> 100,> 100,–,–,–,–,–,–,–,–,–
O=C(c1ccco1)N(C(=S)OCCOc1ccccc1)c1ccccc1,41.8,51.6,32.5,43.5,57.8,37.5,39,30.6,58.6,–,–,–,–,–,–,–,–,–,–
CN(C(=O)Cc1cccc(N=C=S)c1)[C@H]1CCCC[C@@H]1N1CCCC1,36.2,27.7,26,23.8,32.2,29,–,31.8,79.8,20.4,–,–,–,–,–,–,–,–,–
CCOC(=O)c1cc2c3ccn(Cc4ccccc4)c3c3c(C)[nH]oc3c2n1,> 100,> 100,> 100,> 100,> 100,–,–,> 100,> 100,> 100,–,–,–,–,–,–,–,–,–
CC(=O)O[C@H]1C(=O)[C@@]2(C)C(C(OC(=O)c3ccccc3)[C@]3(O)CC(OC(=O)C(O)C(NC(=O)c4ccc(C(F)(F)F)cc4)c4ccccc4)C(C)=C1C3(C)C)[C@]1(OC(C)=O)CO[C@@H]1C[C@@H]2O (stereo partly drawn),0.763,–,0.196,–,–,> 37.5,0.65,–,–,3.8,–,–,–,–,–,–,–,–,–
C1=Cc2cc3c(c4nccc(c24)N1)OCO3,> 57.8,26.6,17,48.8,> 100,> 100,–,> 64.7,> 67.2,–,–,–,–,–,–,–,–,–,–
O=C1NC(=S)NC(=O)C1C(c1ccc(O)cc1)C1C(=O)NC(=S)NC1=O,> 100,> 100,> 100,> 100,> 100,> 100,–,> 100,> 100,> 100,–,–,–,–,–,–,–,–,–
O=C(Nc1nnc(-c2ccc(Cl)cc2)o1)C(SC(=S)N1CCOCC1)c1ccccc1 (stereo not drawn),> 100,> 100,26.5,62.5,55.1,–,34.1,> 100,90.7,26.6,–,–,–,–,–,–,–,–,–
COc1cc2oc(-c3ccc(O)cc3)c(OC)c(=O)c2c(O)c1OC,> 100,> 100,> 100,> 100,> 100,> 100,> 100,–,> 100,> 100,> 100,18.3,34.8,27.7,40.6,43.9,44.1,70.1,30.9
CC(C)=C[C@H]1CCC2(OCCO2)[C@]1(C)CO,> 100,–,> 100,> 100,> 100,–,> 100,> 100,> 100,> 100,–,–,–,–,–,–,–,–,–
CC(=O)Oc1ccc2cc(-c3ccccc3OC(C)=O)c(=O)oc2c1,> 100,> 100,> 100,> 100,> 100,–,> 100,> 100,> 100,–,–,–,–,–,–,–,–,–,–
Cn1c(O)c(C(=O)NC2CCCCC2)c(=O)n(C)c1=S,25,–,–,–,–,8.48,21.4,–,–,17,–,–,–,–,–,–,–,–,–
CC1(C)C[C@@H]2C1CCC1(C)CC2(O)CC[C@H]1O (stereo partly drawn),> 100,–,–,> 100,> 100,> 100,–,–,> 100,> 100,–,–,–,–,–,–,–,–,–
